What all share (format): cell-based, human
Assay [1] has as its system hADSCs. Description: Example 7 chemical reprogramming of hADSCs, OCT4+ hCiPSC colonies. As to conditions: for improving reprogramming efficiency: added in stage 1. As to the method: The stage 1 induction medium contained Knockout DMEM (Gibco) supplemented with 2% B27 supplement (Gibco), 1% Knockout Serum Replacement (KSR; Gibco), 1% GlutaMAX (Gibco), 1% nonessential amino acids (NEAA; Gibco), 1% penicillin-streptomycin, 50 μg ml-1 Vc2p, 5 mM LiCl, 1 mM nicotinamide, 40 ng ml^−1 BMP4 and the small molecules CHIR-99021 (5 μM), 616452 (10 μM), TTNPB (2 μM), SAG (0.5 μM), EPZ-5676 (2 μM), DZNep (0.05 μM), ruxolitinib (1 μM), VTP50469 (0.5 μM), AKT kinase inhibitor (1 μM), JNK-IN-8 (0.2 μM), SETD2-IN-1 (0.2 μM), AM095 free acid (0.5 μM), WM-8014 (1 μM) and A-485 (0.5 μM).
Stage 2 induction medium contained Knockout DMEM supplemented with 2% B27 supplement, 1% GlutaMAX, 1% NEAA, 1% penicillin-streptomycin, 50 μg ml^−1 Vc2p, 200 ng ml^−1 bFGF and the small molecules CHIR-99021 (5 μM), 616452 (10 μM), TTNPB (2 μM), SAG (0.5 μM), JNK-IN-8 (0.5 μM), EPZ-5676 (2 μM), DZNep (0.2 μM), ruxolitinib (1 μM), BIRB 796 (2 μM), SGC-CBP30 (2 μM), VTP50469 (0.5 μM), 5-Iodotubercidin (0.5 μM), AKT kinase inhibitor (0.2 μM), CX-4945 (1 μM), RA (5 μM) and GSK-3685032 (0.02 μM).
Stage 3 induction medium contained Knockout DMEM supplemented with 2% B27 supplement, 1% GlutaMAX, 1% NEAA, 1% penicillin-streptomycin, 5% KSR, 50 μg ml^−1 Vc2p, 20 ng ml^−1 recombinant human heregulinβ-1 (HRG) and the small molecules CHIR-99021 (1 μM), Y-27632 (10 μM), PD0325901 (1 μM) and SB-590885 (0.5 μM). Knockout DMEM containing supplements and the small molecules mentioned above served as the basal medium for stage 3. For the first 2-3 days of stage 3 induction, valproic acid sodium salt (VPA; 200 μM), tranylcypromine (10 μM), DZNep (0.2 μM), EPZ-5676 (2 μM) and PY-60 (10 μM) were added to the basal medium. For the next 2-3 days, VPA (200 μM) and PY-60 (2 μM) were added to the basal medium. Information on the small molecules, cytokines and other reagents is available in Supplementary Table 4.
Hypoxia with 5% O2 was used for stage 1 induction. After stage 1 induction, the culture was changed to 21% O2.
(1) hADSCs and hASFs were seeded in high-glucose DMEM supplemented with 15% FBS at a density of 1.2-1.4×10^4 cells per well in 12-well plates or 0.6-0.7×10^4 cells per well in 24-well plates. The medium was changed to stage 1 induction medium the next day.
(2) For stage 1 induction, single-layer epithelium-like cells emerged on day 4. When the epithelium-like cells reached ˜100% confluence (usually after 6-8 days of stage 1 induction for hADSCs and 8-10 days for hASFs), the medium was changed to stage 2 induction medium. For the induction of hADSCs in 24-well plates, 1 ml of stage 1 medium was added to each well (2 ml per well for 12-well plates), and there was no need to change the medium during stage 1. For the induction of hASFs, stage 1 medium was replaced with fresh medium on day 6. […]

Assay [2] relates to hADSCs. Briefly: Stage 1 conversion of hADSCs to epithelial-like cells, morphology (FIG. 3). As to conditions: added in stage 1, small-molecule library screen. As to the method:
(§1) In one experiment, when converting hCiPSCs from somatic cell (e.g., hADSCs), hypoxia with 5% O2 was used in stage 1 conversion. After stage 1 conversion, cells were incubated with 21% O2. The induction medium was changed every 3-4 days. hADSCs were seeded at a density of 1×10^4 cells per well of a 12-well plate in 15% FBS-DMEM medium and would be changed into stage 1 conversion medium the next day. For stage 1 conversion, single layer epithelial-like cells induced from hADSCs would emerge at day 4-6 and approach 100% confluence at day 8-12. Then the medium was changed into stage 2 conversion medium. For stage 2 conversion, multi-layered cell colonies appeared after 8-12 days of treatment of the cells with the conversion medium, and these cell colonies would continually grow increasingly large. The medium was changed into stage 3 conversion medium after 16 days of treatment with the stage 2 conversion medium. […]
In stage 1, the conversion medium was changed every 3-4 days. hADSCs were seeded at a density of 1×10^4 cells per well of a 12-well plate in 15% FBS-DMEM medium and would be changed into stage I induction medium the next day. […] Conversion into epithelial-like cells can be measured by upregulation of and epithelial cell-related genes. […]

For assay [3], the system named is hADSCs. Description: Three-stage conversion of hADSCs into hCiPSCs (methods of EXAMPLE 1), numbers of hCiPSC colonies.
Excerpt: FIG. 1 illustrates a schematic of an exemplary method for converting human somatic cells into pluripotent stem cells. The method has 3 stages. During any of the 3 stages, any cell can proliferate and give rise to progeny cells. In stage 1, a first population of cells comprising somatic cells are contacted with a first composition for about 4-12 days. The first population of cells can comprise somatic cells (e.g., fibroblasts or primary human adult adipose derived mesenchymal stromal cells (hADSCs)). During and/or subsequent to contacting the first composition, at least a subset of the cells of the first population of cells or the progenies thereof are converted into a second population of cells. The second population of cells can comprise epithelial-like cells. In stage 2, the second population of cells or the progenies thereof are then contacted with a second composition for about 4-16 days. During and/or subsequent to contacting the second composition, at least a subset of the cells of the second population of cells or the progenies thereof are converted into a third population of cells. The third population of cells can comprise intermediate plastic state cells. In stage 3, the third population of cells or the progenies thereof are contacted with a third composition for about 6-12 days. During and/or subsequent to contacting the third composition, at least a subset of the cells of the third population of cells or the progenies thereof are converted into a fourth population of cells.
FIG. 2 illustrates a schematic of an exemplary method for converting human fibroblasts into pluripotent stem cells. The method can comprise 3 stages. During any of the 3 stages, any cell can proliferate and give rise to progeny cells. In stage 1, a first population of cells comprising fibroblasts is contacted with a first composition for about 8-10 days. During and/or subsequent to contacting the first composition, at least a subset of the cells of the first population of cells or the progenies thereof are converted into a second population of cells. The second population of cells can comprise epithelial-like cells. The epithelial-like cells express an increased amount of LIN28A, relative to the first population of cells or their progenies. In stage 2, the second population of cells or the progenies thereof are then contacted with a second composition for about 12-16 days. During and/or subsequent to contacting the second composition, at least a subset of the cells of the second population of cells or the progenies thereof are converted into a third population of cells. The third population of cells can comprise intermediate plastic state cells. The intermediate plastic state cells express both SALL4 and LIN28A. In stage 3, the third population of cells or the progenies thereof are contacted with a third composition for about 8-10 days. During and/or subsequent to contacting the third composition, at least a subset of the cells of the third population of cells or the progenies thereof are converted into a fourth population of cells. […] The second conversion medium can then be removed from the cells. […] The third stage 3 medium may allow the pluripotent stem cells or the progenies thereof to proliferate.
as §1, with “medium.” for “medium. For stage 2 conversion, multi-layered cell colonies appeared after 8-12 days of treatment of the cells with the conversion medium, and these cell colonies would continually grow increasingly large. The medium was changed into stage 3 conversion medium after 16 days of treatment with the stage 2 conversion medium.”

The values that follow come from patent US20250340848A1, “METHODS FOR CHEMICAL REPROGRAMMING AND PLURIPOTENT STEM CELLS” (Peking University, priority 2022, published 2025).

Turning to `CNC(=O)Nc1ccc2c(c1)CC[C@@]21OC(=O)N(CC(=O)N(Cc2ccc(F)cc2)[C@@H](C)C(F)(F)F)C1=O` [A485], the “screening of chemical libraries targeting histone modifications during chemical reprogramming stage 1” value in the assay with hADSCs [1] (0.5 μM screening batch, FIG. 39) is “top candidate”. Further, in the assay on hADSCs [1], the improving reprogramming efficiency result was “most effective in improving reprogramming efficiency”.

For the compound `Cc1cc(-c2ccccc2)cc(C(=O)NNS(=O)(=O)c2ccccc2)c1F` [WM8014], the “screening of chemical libraries targeting histone modifications during chemical reprogramming stage 1” value in the assay on hADSCs [1] (1 μM screening batch, FIG. 40) is “top candidate”. Also, the improving reprogramming efficiency result with hADSCs [1] was “most effective in improving reprogramming efficiency”.

With `CCn1c(-c2nonc2N)nc2c(C#CCO)ncc(OCCCN)c21` [AKT Kinase Inhibitor, 3-[2-(4-amino-1,2,5-oxadiazol-3-yl)-7-(3-aminopropoxy)-1-ethylimidazo[4,5-c]pyridin-4-yl]prop-2-yn-1-ol], the “emergence of epithelial-like colonies” value with hADSCs [2] is “further promoted the emergence epithelial-like colonies”. Also, the reprogramming efficiency entry in the assay with hADSCs [3] (AKTi and CX4945 included in the stage 2 conversion medium (Base), FIG. 18) is listed as “significantly improved the reprogramming efficiency”. Besides, the “numbers of converted hCiPSCs” value with hADSCs [3] (factor removed from the stage 1 conversion medium, FIG. 4) is recorded as “minimal numbers of converted hCiPSCs”.

For `CC(C)N(C(=O)c1cc(F)ccc1Oc1cncnc1N1CC2(CCN(CC3CCC(NS(C)(=O)=O)CC3)CC2)C1)C(C)C` (centres unmarked) [VTP50469], the “emergence of epithelial-like colonies” value in the assay on hADSCs [2] is on record as “further promoted the emergence epithelial-like colonies”. Moreover, the “increase of the numbers of converted hCiPSCs” value in the assay on hADSCs [3] (added to the stage 2 conversion medium, relative to medium without it, FIGS. 7A-7B) is “about 7 fold”. The “numbers of converted hCiPSCs” value in the assay on hADSCs [3] (factor removed from the stage 2 conversion medium, FIG. 17) is recorded as “reduced the numbers of converted hCiPSCs”; with hADSCs [3] (various combinations supplemented to stage 1 conversion medium comprising CHIR99021, 616452, TTNPB and AKT Kinase Inhibitor, FIG. 5) it was “significantly increase the numbers of converted hCiPSCs”.
